Source: PubChem BioAssay AID720577 (The Scripps Research Institute Molecular Screening Center, 2013)
Calls of active or inactive are those of the source. No rule for the calls is given here.

Each compound was assayed against CCHF virus vOTU protease domain (L polyprotein) (assay: Crimean Congo hemorrhagic fever virus vOTU protease, Pep AMC substrate, counterscreen, confirmatory (AID 720577)). Conditions: purified vOTU, fluorescence.

Row | SMILES | IC50
1 | CC1=C(SCc2ccccc2)C(=O)c2ccccc2C1=O | 9.91 µM
2 | O=C1C(=NO)CCc2ccccc21 | inactive
3 | O=C(NC(=S)Nc1ccccc1N1CCCC1)c1ccccc1Br | > 115 µM (inactive)
4 | CCCNC1=C(N(C(C)=O)c2cccc(F)c2)C(=O)c2ccccc2C1=O | > 12.7 µM (inactive)
5 | CN(C)c1ccc2nc3ccc(=O)cc-3sc2c1 | > 115 µM (inactive)
6 | CCOC(=O)N1CCN(C2=C(NS(=O)(=O)c3ccc(C)cc3)C(=O)c3ccccc3C2=O)CC1 | inactive
7 | CN(C)CCCNc1cc(O)c2ncccc2c1 | inactive
8 | CC(=O)Nc1ccc(S(=O)(=O)NC2=C(N3CCN(c4ccc(F)cc4)CC3)C(=O)c3ccccc3C2=O)cc1 | inactive
9 | O=C(N/N=C1\C/C(=N\NC(=O)c2ccncc2)c2ccccc21)c1ccncc1 | 1.81 µM
10 | CC(=O)NC1=C(N(C)C2CCS(=O)(=O)C2)C(=O)c2ccccc2C1=O (configuration not stated) | inactive
11 | CCc1ccc(S(=O)(=O)/N=C2\C=C(Nc3cccc(C(=O)O)c3)C(=O)c3ccccc32)cc1 | 2.51 µM
12 | COC1=C(Br)C(=O)c2nc(C)ccc2C1=O | inactive
13 | O=C1C=C(N2CC2)c2ccccc2C1=O | 8.1 µM
14 | COc1cc(Br)c(C(=O)c2nccc3cc(OC)c(OC)cc23)cc1OC | 1.13 µM
15 | CCCCCCCCCCCCCCCC[n+]1cccc2ccccc21 | 4.2 µM
16 | O=S(=O)(c1ccc2nc(-c3ccco3)c(-c3ccco3)nc2c1)N1CCOCC1 | > 115 µM (inactive)
17 | CCc1cc[n+](C2=C([O-])c3ccccc3C(=O)/C2=N\S(=O)(=O)c2cccs2)cc1 | inactive
18 | CC1CCCC(NC(=O)COC(=O)c2ccc([N+](=O)[O-])s2)C1C (configuration not stated) | inactive
19 | CC1(OC(=O)C2CCCC2)C(=O)C=C2C=C(c3ccsc3)N(CCCCO)C=C2C1=O (configuration not stated) | inactive
20 | COc1ccc(NC(=S)Nc2ccc3nsnc3c2)cc1 | 6.9 µM
21 | O=C(O)c1ccc(NC2=C(n3nnc4ccccc43)C(=O)c3ccccc3C2=O)cc1 | inactive
22 | O=C1Cc2ccccc2C(=O)N1CCc1ccccc1 | 1.51 µM

Row | SMILES | IC50
23 | O=C(NC1=C(NC2CCS(=O)(=O)C2)C(=O)c2ccccc2C1=O)c1ccccc1 (configuration not stated) | inactive
24 | O=S(=O)(Nc1c(S(=O)(=O)c2ccccc2)c2nc3ccccc3nc2n1C1CCCCC1)c1ccccc1 | > 115 µM (inactive)
25 | CN1CCN(C2=C(Cl)C(=O)c3ccccc3C2=O)CC1 | 1.07 µM
26 | Cc1cc(NC2=CC(=O)C(=O)c3ccccc32)no1 | inactive
27 | Cc1ccc(S(=O)(=O)/N=C2\C=C(Nc3cccc(C(=O)O)c3)C(=O)c3ccccc32)cc1 | 1.99 µM
28 | O=C1C(N2CCOCC2)=C(n2nnc3ccccc32)C(=O)c2ccccc21 | 6.3 µM
29 | NC(=S)N=Nc1c(O)cc(O)c2[nH]c(=O)ccc12 | inactive
30 | COC1=C(N)C(=O)c2nc(C)ccc2C1=O | 4.98 µM
31 | CCC(C)n1c(NC(=O)c2ccccc2)c(C#N)c2nc3ccccc3nc21 (configuration not stated) | > 12.7 µM (inactive)
32 | Cc1oc2c(c1C(=O)N1CCOCC1)C(=O)c1ccccc1C2=O | inactive
33 | Cc1cnc(C2OCCO2)c2cccc(N)c12 | 5.37 µM
34 | COc1cc2c(cc1OC)-c1c(OC)c(OC)cc3c1[C@H](C2)N(C)CC3 | > 12.7 µM (inactive)
35 | CC(=O)N(C1=C(Cl)C(=O)c2ccccc2C1=O)C1CCCCC1 | inactive
36 | CN1/C(=C\C=C2C(=O)NC(=O)NC2=O)C(C)(C)c2ccccc21 | inactive
37 | COC(=O)c1nc(-c2ccc3c(n2)C(=O)C(N)=C(OC)C3=O)c(N)c(-c2ccc(OC)c(OC)c2O)c1C | 2.58 µM
38 | COC1=CC(=O)c2c(ccc3ncnc(N)c23)C1=O | 0.853 µM
39 | COc1cc(C=c2c3ccccc3n3c2cc(-c2ccccc2)[n+]3C)cc(OC)c1OC | 5.77 µM
40 | c1coc(-c2nnc(-c3ccco3)nn2)c1 | inactive
41 | O=C(c1ccccc1)c1coc2c1C(=O)c1ccccc1C2=O | inactive
42 | O=C(OCc1nnc(-c2ccccc2)o1)c1ccc([N+](=O)[O-])s1 | inactive
43 | O=C1C(Nc2ccccc2)=C(N2CCCCC2)C(=O)c2ccccc21 | inactive
44 | COc1cc(NCCCC(C)N)c2ncccc2c1 (configuration not stated) | 4.6 µM

Row | SMILES | IC50
45 | CCCCn1c(NS(=O)(=O)c2ccccc2)c(C(=O)OCC)c2nc3ccccc3nc21 | > 115 µM (inactive)
46 | Cc1c(Cl)cnc(NC(=O)COC(=O)c2ccc([N+](=O)[O-])s2)c1Cl | inactive
47 | CCCCn1c(NS(=O)(=O)c2ccccc2)c(S(=O)(=O)c2ccc(C)cc2)c2nc3ccccc3nc21 | > 115 µM (inactive)
48 | O=c1[nH]c(Nc2ccccc2)cc2cc(Br)ccc12 | 1.45 µM
49 | CCOC(=O)c1c(C)[nH]c2c1-c1ccccc1C(=O)C2=O | 0.662 µM
50 | NS(=O)(=O)c1ccc(NC2=CC(=O)C(=O)c3ccccc32)cc1 | inactive
51 | CC1COCC(C)N1C1=C(Cl)C(=O)c2ccccc2C1=O (configuration not stated) | inactive
52 | Cc1ccc(NC2=C(N3CCOCC3)C(=O)c3ccccc3C2=O)cc1 | inactive
53 | CCCCCCCCCCOC(=O)Cn1c(COc2ccc(Cl)cc2)[n+](C)c2ccccc21 | 6.42 µM
54 | CCOc1ccc(NC(=S)Nc2ccc3nsnc3c2)cc1 | inactive
55 | O=C1C(Nc2cccc(O)c2)=C(N2CCCCC2)C(=O)c2ccccc21 | inactive
56 | C[n+]1c(-c2ccccc2)cc2c(=Cc3ccccc3)c3ccccc3n21 | 3.65 µM
57 | COc1ccccc1Nc1cc2cc(Br)ccc2c(=O)[nH]1 | 1.36 µM
58 | O=C1C=C(N2CCCCC2)c2ccccc2C1=O | inactive
59 | CN(C)S(=O)(=O)c1cccc(NC(=S)Nc2cccc3cnccc23)c1 | inactive
60 | O=C(/C=C/c1ccc(O)cc1)c1ccc(NC2=C(N3CCCCC3)C(=O)c3ccccc3C2=O)cc1 | inactive
61 | O=C(/C=C/c1ccc([N+](=O)[O-])s1)N1CCCCC1 | > 115 µM (inactive)
62 | CCC(COC)Oc1cc(NCc2ccccc2)c2ncn(C(C)C)c2c1 (configuration not stated) | inactive
63 | Cc1ccccc1NC1=C/C(=N\S(=O)(=O)c2cccs2)c2ccccc2C1=O | 1.04 µM
64 | O=[N+]([O-])c1ccccc1-c1ccc(C(=S)N2CCCC2)o1 | inactive
65 | CC(C)N(C(=O)Nc1ccc2nsnc2c1)C(C)C | > 115 µM (inactive)
66 | O=C(O)CSc1cc(NS(=O)(=O)c2ccc(Br)cc2)c2ccccc2c1O | inactive

Row | SMILES | IC50
67 | C=CCN1C=CC(=C/C=C(/C#N)C(=O)OCC)C=C1 | inactive
68 | S=C(Nc1ccc2nsnc2c1)N1CCCCCC1 | inactive
69 | O=C1C=C(NCc2ccccc2)c2ccccc2C1=O | inactive
70 | CCOC(=O)C1=C(COC(=O)c2ccc([N+](=O)[O-])s2)NC(=O)NC1C (configuration not stated) | inactive
71 | CC[C@H](CO)Oc1cc(NCc2cccc(N)c2)c2ncn(C(C)C)c2c1 | inactive
72 | O=c1[nH]c(=S)[nH]c2c1C(c1ccc(Br)cc1)c1c([nH]c(=S)[nH]c1=O)O2 | inactive
73 | C[n+]1c(-c2ccccc2)cc2c(=Cc3ccc([N+](=O)[O-])cc3)c3ccccc3n21 | 4.14 µM
74 | CN1CCC/C1=C/C=C1\SC(=S)NC1=O | inactive
75 | O=C1C(SCCO)=C(SCCO)C(=O)c2ccccc21 | 7.34 µM
76 | COc1cc2c(cc1O)[C@@H]1Cc3ccc(OC)c(O)c3CN1CC2 | inactive
77 | Cc1coc2c(O)cc3c(c12)OC1(N2CCCCC2)C(=O)NCCCC31 (configuration not stated) | inactive
78 | CC(=O)c1ccc(NC(=S)Nc2cccc3cnccc23)cc1 | 7.69 µM
79 | Cc1ccc(CNc2ccc(O)cc2)cc1 | inactive
80 | NS(=O)(=O)c1ccc(NC(=O)COC(=O)c2ccc([N+](=O)[O-])s2)cc1 | inactive
81 | Cc1cccc(NC(=O)c2sc3nc4c(c(-c5cccs5)c3c2N)CN(C)CC4)c1 | inactive
82 | Cc1cc(C)c(S(=O)(=O)/N=C2\C=C(Nc3ccc(C(=O)O)cc3)C(=O)c3ccccc32)c(C)c1 | 4.54 µM
83 | COc1ccc(N2C(=O)[C@@H]3[C@H](C2=O)[C@H]2c4ccccc4C=CN2[C@@H]3C(C)=O)cc1 | inactive
84 | O=C1C=C(Nc2ccccc2)c2ccccc2C1=O | inactive
85 | O=C1C=C(N2CCOCC2)c2ccccc2C1=O | inactive
86 | Cc1ccc(N2C(=O)[C@@H]3[C@H](C2=O)C2c4ccccc4C=CN2[C@@H]3C(=O)c2ccco2)cc1 (some centres not stated) | 5.2 µM
87 | CCc1ccc(S(=O)(=O)Nc2cc(SCC(=O)O)c(O)c3ccccc23)cc1 | inactive
88 | CC(C)NC1=C(Cl)C(=O)c2ccccc2C1=O | inactive

Row | SMILES | IC50
89 | O=C(NC(=S)Nc1ccccc1N1CCCC1)c1ccc(F)cc1 | > 115 µM (inactive)
90 | COc1ccc(S(=O)(=O)/N=C2\C=C(Nc3ccc(O)cc3)C(=O)c3ccccc32)cc1 | 1.33 µM
91 | Cc1cc2c(cc1C)C(=O)C(Br)=C(N)C2=O | inactive
92 | O=C(NCCCO)c1ccc2nc(-c3ccco3)c(-c3ccco3)nc2c1 | inactive
93 | O=C1NNC(c2ccccc2)=N/C1=C\c1ccccc1Cl | inactive
94 | O=C(O)c1cccc(NC2=C(N3CCOCC3)C(=O)c3ccccc3C2=O)c1 | inactive
95 | N#CC1=C(S)N(c2ccccc2)C(c2ccc(-c3ccc(Cl)c(Cl)c3)o2)NC1=O (configuration not stated) | > 115 µM (inactive)
96 | CC1OC(CC(=O)O)CC2=C1C(=O)c1c(O)cccc1C2=O (configuration not stated) | inactive
97 | COc1cc2c(cc1OC)-c1c(OC)c(OC)cc3c1C(C2)N(C)CC3 (configuration not stated) | > 115 µM (inactive)
98 | O=C1C=C(Nc2ccccc2C(=O)O)c2ccccc2C1=O | 7.39 µM
99 | CC(NC1=CC(=O)c2cccnc2C1=O)C(O)c1ccccc1 (configuration not stated) | 4.33 µM
100 | CCC(CNc1cc(OC)cc2cccnc12)NC1CCCCC1 (configuration not stated) | 6.96 µM
101 | CN(C1=C(NC(=O)c2ccccc2)C(=O)c2ccccc2C1=O)C1CCS(=O)(=O)C1 (configuration not stated) | 9.59 µM
102 | O=C1C(=O)c2cccnc2-c2ncccc21 | inactive
103 | Cn1c2ccccc2c2cc(/C=N/NC(=O)c3cc(O)ccc3O)ccc21 | inactive
104 | CN(C)c1ccc(C=c2c3cc(O)ccc3n3c2cc(-c2ccccc2)[n+]3C)cc1 | 4.33 µM
105 | COc1cc(CCNC2=CC(=O)c3ncccc3C2=O)ccc1O | inactive
106 | CC(=O)[C@H]1[C@@H]2C(=O)N(c3cccc(Cl)c3)C(=O)[C@@H]2[C@H]2c3ccccc3C=CN21 | inactive
107 | CN(C)c1cccc2c1c(NS(=O)(=O)c1cn(C)cn1)nn2C | inactive
